Measurements published in patent US20070117743A1, “New antitumoral compounds” (priority 2003, published 2007).

Assays:
Format in all cases: cell-based, human
HeLa-APL = test: SRB colorimetric assay of cell growth and viability, HeLa-APL; settings: 48 hours exposure; for CC50: read-out: LC50 HELA-APL
K-562 = test: SRB colorimetric assay of cell growth and viability, K-562; settings: 48 hours exposure; for CC50: read-out: LC50 K-562
SK-BR-3 = test: SRB colorimetric assay of cell growth and viability, SK-BR-3; settings: 48 hours exposure
HeLa = test: SRB colorimetric assay of cell growth and viability, HeLa; settings: 48 hours exposure; for CC50: read-out: LC50 HELA
DU-145 = test: SRB colorimetric assay of cell growth and viability, DU-145; settings: 48 hours exposure
IGROV-ET = test: SRB colorimetric assay of cell growth and viability, IGROV-ET; settings: 48 hours exposure; for CC50: read-out: LC50 IGROV-ET
IGROV-1 = test: SRB colorimetric assay of cell growth and viability, IGROV-1; settings: 48 hours exposure
LoVo = test: SRB colorimetric assay of cell growth and viability, LoVo; settings: 48 hours exposure; for CC50: read-out: LC50 LOVO
PANC-1 = test: SRB colorimetric assay of cell growth and viability, PANC-1; settings: 48 hours exposure; for CC50: read-out: LC50 PANC-1
SK-MEL-28 = test: SRB colorimetric assay of cell growth and viability, SK-MEL-28; settings: 48 hours exposure; for CC50: read-out: LC50 MEL-28
LNCaP = test: SRB colorimetric assay of cell growth and viability, LNCaP; settings: 48 hours exposure; for GI50: read-out: GI50 LN-caP; for CC50: read-out: LC50 LN-caP
LoVo-Dox = test: SRB colorimetric assay of cell growth and viability, LoVo-Dox; settings: 48 hours exposure; for CC50: read-out: LC50 LOVO-DOX
Outline: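 Sulforhodamine B assay run after 48 h of continuous drug contact; cells seeded 5×10^3/well in RPMI 1640 10% FBS, attached 18 h. Triplicate OD490 values give cytostatic (TGI), cytotoxic (LC) and GI parameters.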

A-549 = test: SRB colorimetric assay of cell growth and viability, A-549; settings: 48 hours exposure; for GI50: read-out: GI50 A-549; for CC50: read-out: LC50 A-549
HT-29 = test: SRB colorimetric assay of cell growth and viability, HT-29; settings: 48 hours exposure; for GI50: read-out: GI50 HT-29; for CC50: read-out: LC50 HT-29

Compound: C/C=C1\NC(=O)[C@H](Cc2ccccc2)NC(=O)[C@@H](C(C)C)NC(=O)[C@@H](C(C)CC)NC(=O)[C@H](NC(=O)[C@H](NC(=O)[C@H](CCCN)NC(=O)[C@H]2CCCN2C(=O)[C@H](NC(=O)[C@@H](NC(=O)[C@@H](NC(=O)[C@H](NC(=O)CCC(C)CC)C(C)C)C(C)O)C(C)C)C(C)C)C(C)CC)C(C)OC(=O)[C@H](C(C)C)NC1=O (stereo partly drawn) [Compound 1, (4S)-MeHex-D-Val-ThrVal-D-Val-D-Pro-Orn-D-allo-Ile-cyclo[D-allo-Thr-D-allo-Ile-D-Val-Phe-(Z)Dhb-Val]]
- GI50 (HeLa-APL): 0.556 µM
- TGI HELA-APL (HeLa-APL): 1.52E−06 Molar
- CC50 (HeLa-APL): 3.81 µM
- GI50 (K-562): 1.62 µM
- TGI K-562 (K-562): 2.96E−06 Molar
- CC50 (K-562): 5.4 µM
- GI50 (SK-BR-3): 0.0434 µM
- LC50 (SK-BR-3): 0.469 µM
- TGI SK-BR-3 (SK-BR-3): 9.27E−08 Molar
- GI50 (HeLa): 0.254 µM
- TGI HELA (HeLa): 7.38E−07 Molar
- CC50 (HeLa): 2.56 µM
- GI50 (DU-145): 0.327 µM
- LC50 (concentration causing 50% net cell kill) (DU-145): 2.54 µM
- TGI DU-145 (DU-145): 8.80E−07 Molar
- GI50 (IGROV-ET): 0.135 µM
- TGI IGROV-ET (IGROV-ET): 2.89E−07 Molar
- CC50 (IGROV-ET): 0.619 µM
- GI50 (IGROV-1): 0.158 µM
- LC50 (concentration causing 50% net cell killing) (IGROV-1): 0.641 µM
- TGI IGROV (IGROV-1): 3.19E−07 Molar
- GI50 (LoVo): 0.116 µM
- TGI LOVO (LoVo): 2.42E−07 Molar
- CC50 (LoVo): 0.502 µM
- GI50 (PANC-1): 1.82 µM
- TGI PANC-1 (PANC-1): 3.66E−06 Molar
- CC50 (PANC-1): ≥ 6.77 µM
- GI50 (SK-MEL-28): 0.315 µM
- TGI MEL-28 (SK-MEL-28): 4.10E−07 Molar
- CC50 (SK-MEL-28): 2.1 µM
- TGI LN-caP (LNCaP): 2.14E−06 Molar
- GI50 (LNCaP): 0.9 µM
- CC50 (LNCaP): 5.08 µM
- GI50 (LoVo-Dox): 0.0636 µM
- TGI LOVO-DOX (LoVo-Dox): 2.29E−07 Molar
- CC50 (LoVo-Dox): 1.43 µM
- TGI A-549 (A-549): 2.05E−06 Molar
- GI50 (A-549): 0.907 µM
- CC50 (A-549): 4.63 µM
- TGI HT-29 (HT-29): 2.18E−07 Molar
- GI50 (HT-29): 0.0954 µM
- CC50 (HT-29): 0.498 µM

Compound: C/C=C1\NC(=O)[C@H](Cc2ccccc2)NC(=O)[C@@H](C(C)C)NC(=O)[C@@H]([C@@H](C)CC)NC(=O)[C@H](NC(=O)[C@H](NC(=O)[C@H](CCCN)NC(=O)[C@H]2CCCN2C(=O)[C@H](NC(=O)[C@@H](NC(=O)[C@@H](NC(=O)[C@H](NC(=O)CCCC(C)C)C(C)C)[C@@H](C)O)C(C)C)C(C)C)[C@@H](C)CC)[C@H](C)OC(=O)[C@H](C(C)C)NC1=O [Compound 2, [D-Thr^6]-KF]
- GI50 (HeLa-APL): ≥ 6.77 µM
- TGI HELA-APL (HeLa-APL): 6.77E−06 Molar
- CC50 (HeLa-APL): ≥ 6.77 µM
- GI50 (K-562): ≥ 6.77 µM
- TGI K-562 (K-562): 6.77E−06 Molar
- CC50 (K-562): ≥ 6.77 µM
- GI50 (SK-BR-3): 4.47 µM
- LC50 (SK-BR-3): ≥ 6.77 µM
- TGI SK-BR-3 (SK-BR-3): 6.77E−06 Molar
- GI50 (HeLa): ≥ 6.77 µM
- TGI HELA (HeLa): 6.77E−06 Molar
- CC50 (HeLa): ≥ 6.77 µM
- GI50 (DU-145): 5.29 µM
- LC50 (concentration causing 50% net cell kill) (DU-145): ≥ 6.77 µM
- TGI DU-145 (DU-145): 6.77E−06 Molar
- GI50 (IGROV-ET): 1.6 µM
- TGI IGROV-ET (IGROV-ET): 3.80E−06 Molar
- CC50 (IGROV-ET): ≥ 6.77 µM
- GI50 (IGROV-1): 1.99 µM
- LC50 (concentration causing 50% net cell killing) (IGROV-1): ≥ 6.77 µM
- TGI IGROV (IGROV-1): 5.33E−06 Molar
- GI50 (LoVo): ≥ 6.77 µM
- TGI LOVO (LoVo): 6.77E−06 Molar
- CC50 (LoVo): ≥ 6.77 µM
- GI50 (PANC-1): ≥ 6.77 µM
- TGI PANC-1 (PANC-1): 6.77E−06 Molar
- CC50 (PANC-1): ≥ 6.77 µM
- GI50 (SK-MEL-28): ≥ 6.77 µM
- TGI MEL-28 (SK-MEL-28): 6.77E−06 Molar
- CC50 (SK-MEL-28): ≥ 6.77 µM
- TGI LN-caP (LNCaP): 6.77E−06 Molar
- GI50 (LNCaP): 2.13 µM
- CC50 (LNCaP): ≥ 6.77 µM
- GI50 (LoVo-Dox): 3.06 µM
- TGI LOVO-DOX (LoVo-Dox): 6.77E−06 Molar
- CC50 (LoVo-Dox): ≥ 6.77 µM
- TGI A-549 (A-549): 6.77E−06 Molar
- GI50 (A-549): ≥ 6.77 µM
- CC50 (A-549): ≥ 6.77 µM
- TGI HT-29 (HT-29): 6.77E−06 Molar
- GI50 (HT-29): ≥ 6.77 µM
- CC50 (HT-29): ≥ 6.77 µM
